According to BigSolDB 2.1:

CO/C=C(/C(=O)OC)c1ccccc1Oc1cc(Oc2ccccc2C#N)ncn1
solubility (mole fraction)
Conditions	288.15 K	293.15 K	298.15 K	303.15 K	308.15 K	313.15 K	318.15 K	323.15 K	328.15 K
in ethanol	0.000747	0.000923	0.00118	0.00171	0.0022	0.00296	0.00422	0.0056	0.00786
in ethyl acetate	0.0246	0.0283	0.0319	0.0415	0.0473	0.059	0.0756	0.0879	0.108
in isobutanol	0.000441	0.000628	0.00084	0.00129	0.0017	0.00231	0.00324	0.00441	0.00571
in isopropanol	0.000339	0.000476	0.000649	0.00102	0.00134	0.00183	0.0026	0.00358	0.00452
in methanol	0.00135	0.00165	0.00205	0.0027	0.00368	0.00497	0.00683	0.0096	0.0144
in n-butanol	0.000514	0.000733	0.000955	0.00149	0.00185	0.00246	0.0034	0.00476	0.00635
in n-propanol	0.000654	0.000829	0.00108	0.00162	0.00207	0.00277	0.00387	0.00527	0.0072
